In US20130065897A1, “COMPOUNDS, PREPARATION AND USES THEREOF” (PETER MACCALLUM CANCER INSTITUTE, priority 2009, published 2013):

What was measured:
Type in all cases: cell-based
[1] = molecular target: recombinant perforin (UniProt P10820); details: read-out: Jurkat IC50; recombinant perforin pre-incubated 30 min with compound; 51Cr-labelled Jurkat cells, 0.1% BSA, 37° C. 4 hours
Description: Inhibition of Perforin-Mediated Lysis of Jurkat Cells
The ability of the compounds to inhibit the lysis of nucleated (Jurkat T lymphoma) cells in the presence of 0.1% BSA, as measured by release of ^51Cr was measured. Jurkat target cells were labelled by incubation in medium with 100 μCi ^51Cr for one hour. The cells were then washed three times to remove unincorporated isotope and re-suspended at 1×10^5 cells per mL in RPMI buffer supplemented with 0.1% BSA. […] The supernatant was collected and assessed for its radioactive content on a gamma counter (Wallac Wizard 1470 automatic gamma counter). Each data point was performed in triplicate and an IC50 was calculated from the range of concentrations described to above.

[2] = test system: KHYG-1 NK cell-mediated lysis of K562 cells; assay: Inhibition of KHYG-1 NK cell-mediated lysis of K562 cells (51Cr release); details: K562 target cells, Effector:Target 2:1, 4 hours 37° C.
Description: Inhibition of KHYG-1 NK Cell-Mediated lysis of K562 Cells
KHYG-1 cells were washed and resuspended in RPMI+0.1% BSA at 4×10^5 cells/ml and 50 μl of KHYG-1 cells were dispensed to each well of a 96-well V-bottom, plate. Test compounds were added to KHYG-1 cells at various concentrations up to 20 μM and incubated at RT for 20 minutes. 1×10^6 K562 target cells were labelled with 75 μCi ^51Cr in 200 μl RPMI for 90 mins at 37° C., cells were washed as described above and resuspended in 5 ml RPMI+0.1% BSA. 50 μl of ^51Cr labelled K562 leukemia target cells were added to each well of the KHYG-1 plate (Effector:Target 2:1) and incubated at 37° C. for 4 hours. ^51Cr release was assayed using a Skatron Harvesting Press and radioactivity estimated on a Wallac Wizard 1470 Automatic Gamma counter (Turku, Finland). The percentage of specific cytotoxicity was calculated by the formula: […]
and expressed as the mean of triplicate assays +/−standard error of the mean.

[3] = test system: KHYG-1 NK cells; assay: Toxicity to KHYG-1 NK cells (trypan blue viability); details: viable cells as percentage of total (% viability), 18 to 24 hours
Description: Toxicity to KHYG-1 NK Cells
KHYG-1 cells were washed and resuspended in RPMI+0.1% BSA at 4×10^5 cells/ml and 50 μl of KHYG-1 cells were dispensed to each well of a 96-well V-bottom plate. Test compounds were added to KHYG-1 cells at a concentration of 20 μM and incubated at RT for 20 minutes. 100 μL of RPMI 0.1% BSA was added and the cells were incubated for 4 hours at 37° C. then washed ×3 in RPMI+0.1% BSA. Cells were then resuspended in 200 μl of complete medium and incubated for 18 to 24 hours at 37° C. Trypan blue was added to each well and viable (clear) cells counted as a percentage of total (clear+blue) cell number (% viability).

Chain of recombinant perforin (P10820 whole entry): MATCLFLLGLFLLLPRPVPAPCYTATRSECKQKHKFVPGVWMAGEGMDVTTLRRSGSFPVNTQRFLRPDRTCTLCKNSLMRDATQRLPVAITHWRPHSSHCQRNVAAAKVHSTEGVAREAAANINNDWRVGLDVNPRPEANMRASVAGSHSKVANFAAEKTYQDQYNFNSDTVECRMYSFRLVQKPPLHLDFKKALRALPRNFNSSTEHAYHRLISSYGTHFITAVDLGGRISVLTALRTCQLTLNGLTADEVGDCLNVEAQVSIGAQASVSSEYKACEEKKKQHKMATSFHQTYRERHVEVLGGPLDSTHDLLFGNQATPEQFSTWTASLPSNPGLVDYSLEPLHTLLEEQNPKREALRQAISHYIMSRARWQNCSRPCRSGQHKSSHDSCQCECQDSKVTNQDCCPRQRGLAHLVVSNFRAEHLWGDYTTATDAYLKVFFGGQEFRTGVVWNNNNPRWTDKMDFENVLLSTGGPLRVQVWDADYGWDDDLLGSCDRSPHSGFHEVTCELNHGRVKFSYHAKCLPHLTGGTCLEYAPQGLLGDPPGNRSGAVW

| Compound | IC50 [1] [nM] | inhibition at 20 µM [2] [%] | percent viable KHYG-1 cells (trypan blue) at 20 μM [3] [%] |
| --- | --- | --- | --- |
| N#Cc1cccc(-c2ccc(/C=C3/NC(=S)NC3=O)s2)c1 [Cmpd 34, (E,Z)-3-(5-((5-Oxo-2-thioxoimidazolidin-4-ylidene)methyl)thiophen-2-yl)benzonitrile] | 9680 | 97 | 99 |
| O=C1NC(=S)N/C1=C/c1ccc(-c2ccc(O)cc2)s1 [Cmpd 35, (E,Z)-5-((5-(4-Hydroxyphenyl)thiophen-2-yl)methylene)-2-thioxoimidazolidin-4-one] | 7720 | 90 | 93 |
| CNC(=O)c1ccc(-c2ccc(/C=C3/NC(=S)NC3=O)s2)cc1 [Cmpd 38, (E,Z)-N-Methyl-4-(5-((5-oxo-2-thioxoimidazolidin-4-ylidene)methyl)thiophen-2-yl)benzamide] | 4530 | 49 | 97 |
| CN(C)C(=O)c1ccc(-c2ccc(/C=C3/NC(=S)NC3=O)s2)cc1 [Cmpd 39, (E,Z)-N,N-Dimethyl-4-(5-((5-oxo-2-thioxoimidazolidin-4-ylidene)methyl)thiophen-2-yl)benzamide] | 6930 | 89 | 95 |
| O=C1NC(=S)N/C1=C/c1ccc(-c2ccc(C(=O)NCC(O)CO)cc2)s1 (stereo not drawn) [Cmpd 40, (E,Z)-N-(2,3-Dihydroxypropyl)-4-(5-((5-oxo-2-thioxoimidazolidin-4-ylidene)methyl)thiophen-2-yl)benzamide] | 2440 | 47 | 82 |
| CC(O)CNC(=O)c1ccc(-c2ccc(/C=C3/NC(=S)NC3=O)s2)cc1 (stereo not drawn) [Cmpd 41, (E,Z)-N-(2-Hydroxypropyl)-4-(5-((5-oxo-2-thioxoimidazolidin-4-ylidene)methyl)thiophen-2-yl)benzamide] | 6500 | 60 | 91 |
| O=C1NC(=S)N/C1=C/c1ccc(-c2ccc(C(=O)NCCCN3CCOCC3)cc2)s1 [Cmpd 43, (E,Z)-N-(3-Morpholinopropyl)-4-(5-((5-oxo-2-thioxoimidazolidin-4-ylidene)methyl)thiophen-2-yl)benzamide] | 8130 | 81 | 89 |
| O=C1NC(=S)N/C1=C/c1ccc(-c2ccc3c(c2)CNC3=O)s1 [Cmpd 46, (E,Z)-5-(5-((5-Oxo-2-thioxoimidazolidin-4-ylidene)methyl)thiophen-2-yl)isoindolin-1-one] | 2550 | 70 | 98 |
| O=C1NC(=O)/C(=C\c2ccc(-c3ccc4c(c3)CNC4=O)s2)N1 [Cmpd 47, (E,Z)-5-((5-(1-Oxoisoindolin-5-yl)thiophen-2-yl)methylene)imidazolidine-2,4-dione] | 400 | 73 | 92 |
| O=C1NC(=S)N/C1=C\c1ccc(-c2ccc3c(c2)CNC3=O)cn1 [Cmpd 51, (E,Z)-5-(6((5-Oxo-2-thioxoimidazolidin-4-ylidene)methyl)pyridin-3-yl)isoindolin-1-one] | 630 | 19 | 97 |
| CC(C)N1Cc2cc(-c3ccc(/C=C4/NC(=S)NC4=O)s3)ccc2C1=O [Cmpd 52, (E,Z)-2-Isopropyl-5-(5-((5-oxo-2-thioxoimidazolidin-4-ylidene)methyl)thiophen-2-yl)isoindolin-1-one] | 4420 | 77 | 92 |
| CCN1Cc2cc(-c3ccc(/C=C4/NC(=S)NC4=O)s3)ccc2C1=O [Cmpd 62, (E,Z)-2-Ethyl-5-(5-((5-oxo-2-thioxoimidazolidin-4-ylidene)methyl)thiophen-2-yl)isoindolin-1-one] | 600 | 84 | 79 |
| CCCN1Cc2cc(-c3ccc(/C=C4/NC(=S)NC4=O)s3)ccc2C1=O [Cmpd 63, (E,Z)-5-(5-((5-Oxo-2-thioxoimidazolidin-4-ylidene)methyl)thiophen-2-yl)-2-propylisoindolin-1-one] | 1520 | 95 | 94 |
| CCCCN1Cc2cc(-c3ccc(/C=C4/NC(=S)NC4=O)s3)ccc2C1=O [Cmpd 64, (E,Z)-2-Butyl-5-(5-((5-oxo-2-thioxoimidazolidin-4-ylidene)methyl)thiophen-2-yl)isoindolin-1-one] | 990 | 96 | 94 |
| CCOC(=O)N1Cc2cc(-c3ccc(/C=C4/NC(=S)NC4=O)s3)ccc2C1=O [Cmpd 65, (E,Z)-Ethyl 1-oxo-5-(5-((5-oxo-2-thioxoimidazolidin-4-ylidene)methyl)thiophen-2-yl)isoindoline-2-carboxylate] | 990 | 72 | 96 |
| CC(=O)N1Cc2cc(-c3ccc(/C=C4/NC(=S)NC4=O)s3)ccc2C1=O [Cmpd 66, (E,Z)-2-Acetyl-5-(5-((5-oxo-2-thioxoimidazolidin-4-ylidene)methyl)thiophen-2-yl)isoindolin-1-one] | 930 | 49 | 85 |
| CC(=O)OCCN1Cc2cc(-c3ccc(/C=C4/NC(=S)NC4=O)s3)ccc2C1=O [Cmpd 68, (E,Z)-2-(1-Oxo-5-(5-((5-oxo-2-thioxoimidazolidin-4-ylidene)methyl)thiophen-2-yl)isoindolin-2-yl)ethyl acetate] | 1170 | 86 | 84 |
| CC1c2cc(-c3ccc(/C=C4/NC(=S)NC4=O)s3)ccc2C(=O)N1C (stereo not drawn) [Cmpd 69, (E,Z)-2,3-Dimethyl-5-(5-((5-oxo-2-thioxoimidazolidin-4-ylidene)methyl)thiophen-2-yl)isoindolin-1-one] | 3210 | 100 | 95 |
| O=C1NC(=S)N/C1=C/c1ccc(-c2ccc3c(c2)CN(CCO)C3=O)s1 [Cmpd 70, (E,Z)-2-(2-Hydroxyethyl)-5-(5-((5-oxo-2-thioxoimidazolidin-4-ylidene)methyl)thiophen-2-yl)isoindolin-1-one] | 780 | 38 | 77 |
| O=C1NC(=S)N/C1=C/c1ccc(-c2ccc3c(c2)CN(CCCO)C3=O)s1 [Cmpd 71, (E,Z)-2-(3-Hydroxypropyl)-5-(5-((5-oxo-2-thioxoimidazolidin-4-ylidene)methyl)thiophen-2-yl)isoindolin-1-one] | 530 | 62 | 88 |
| O=C1NC(=S)N/C1=C/c1ccc(-c2ccc3c(c2)C(=O)NC3)s1 [Cmpd 72, (E,Z)-6-(5-((5-Oxo-2-thioxoimidazolidin-4-ylidene)methyl)thiophen-2-yl)isoindolin-1-one] | 1380 | 58 | 81 |
| CN1Cc2ccc(-c3ccc(/C=C4/NC(=S)NC4=O)s3)cc2C1=O [Cmpd 73, (E,Z)-2-Methyl-6-(5-((5-oxo-2-thioxoimidazolidin-4-ylidene)methyl)thiophen-2-yl)isoindolin-1-one] | 1890 | 60 | 85 |
| O=C1NC(=S)N/C1=C/c1ccc(-c2ccc3c(c2)CN(CCCN2CCCCC2)C3=O)s1 [Cmpd 75, (E,Z)-5-(5-((5-Oxo-2-thioxoimidazolidin-4-ylidene)methyl)thiophen-2-yl)-2-(3-(piperidin-1-yl)propyl)isoindolin-1-one] | 11800 | 61 | 85 |
| O=C1NC(=S)N/C1=C/c1ccc(-c2ccc3c(c2)CN(CCCN2CCCC2)C3=O)s1 [Cmpd 77, (E,Z)-5-(5((5-Oxo-2-thioxoimidazolidin-4-ylidene)methyl)thiophen-2-yl)-2-(3-(pyrrolidin-1-yl)propyl)isoindolin-1-one] | > 20000 | 81 | 80 |
